This series can be described thus: Human HepG2 cell viability assay in 384 well format. Format: toxicity, cell-based. Set-up: dose 125 nL, time 70.5 hour; concentration not given beside the values. To be noted: HepG2 cells, read-out: Inhibition.

Results on 73 compounds are retold here after ChEMBL document CHEMBL3507680, “University of Dundee, Gates Library screen for HepG2 cell viability”.

On to `Cc1cc2ncn(C(=O)N3CCOCC3)c2cc1C`, for which the cytotoxicity at 70.5 h was -5.67%.
With `CC1(C)Oc2ccc(S(=O)(=O)NCCCn3ccnc3)cc2NC1=O`, the cytotoxicity at 70.5 h came to 28.6%.
In the case of `CNC(=O)C1(CCCc2ccccn2)CN(Cc2scnc2C)C1` it was 27.6%; in that of `COCCNc1ccc(CC2CCNC2)cn1` (stereo not drawn), -5.62%; in that of `CC(=O)N1CC(c2n[nH]c3ncccc23)C1`, 28.9%.
`Cc1cc(N2CCN(C(=O)c3cccnc3)CC2)nc(C)n1`: the cytotoxicity at 70.5 h is -2.72%.
The result for `O=C(NCCO)c1sc2ncccc2c1C1CN(C2CCCC2)CCO1` (stereo not drawn) reads -3.18%.
In the case of `Cc1nccn1CC1CCCN(S(=O)(=O)c2cnn(C)c2)C1` (stereo not drawn) it was -2.81%; in that of `Fc1cccc(Oc2nccnc2C2CCN(C3CCOCC3)CC2)c1`, 0.625%.
Turning to `O=C(C1CC1)N1C[C@H]2CCCN(S(=O)(=O)c3ccc(Cl)s3)[C@H]2C1`, the cytotoxicity at 70.5 h was -0.267%.
Turning to `Cc1cnc2[nH]c(C(F)(F)F)c(CN3CCSCC3)c2c1`, the cytotoxicity at 70.5 h was -0.92%.
Consider `Cc1cc(C)n(CC(=O)N2CCCC(c3cc4cccnc4[nH]3)C2)n1` (stereo not drawn), for which the cytotoxicity at 70.5 h is -3.24%.
For the compound `CC(C)C(NC(=O)c1cnc(N2CCOCC2)nc1)c1cccs1` (stereo not drawn), the cytotoxicity at 70.5 h was 7.3%.
For the compound `Cc1ccc2nc(C)cc(NCCNS(=O)(=O)c3cn(C)nc3C)c2c1`, the cytotoxicity at 70.5 h stood at 0.534%.
In the case of `OC1(c2ccccc2F)CCN(Cc2ccccc2N2CCCC2)CC1` it was 12.6%; in that of `Cc1c(CN2CCCC(O)C2)[nH]c2ccc(F)cc12` (stereo not drawn), 0.643%.
Turning to `COc1ccc2c(c1)NC(C1CCN(C(=O)C(C)C)CC1)NS2(=O)=O` (stereo not drawn), the cytotoxicity at 70.5 h is -3.05%.
`CCOCCCNS(=O)(=O)c1ccc2c(c1)NC(=O)C(C)O2` (stereo not drawn): the cytotoxicity at 70.5 h is 12.7%.
On to `CC(C)(C)OC(=O)N[C@@H]1C[C@@H](O)CN(C(=O)c2cccc(F)c2)C[C@H]1O`, for which the cytotoxicity at 70.5 h was -3.14%.
Turning to `CNc1cncc(C2CCN(S(C)(=O)=O)CC2)n1`, the cytotoxicity at 70.5 h is -2.96%.
With `Cc1cc(Oc2ccccc2)nc(C2CCCCN2)n1` (stereo not drawn), the cytotoxicity at 70.5 h stood at 13.4%.
As for `Cc1noc(C)c1CC(=O)NCC1(O)CCCN(c2ccccn2)C1` (stereo not drawn), the cytotoxicity at 70.5 h was 13.4%.
With `NC(=O)c1cc(CC2CCCN(Cc3cnccn3)CC2)ncn1` (stereo not drawn), the cytotoxicity at 70.5 h was -2.22%.
For `COCCNCc1cc2cc(C)cc(C)c2[nH]c1=O`, the cytotoxicity at 70.5 h was -4.55%.
With `COCC(=O)N1CC(c2n[nH]cc2C)C1`, the cytotoxicity at 70.5 h was -6.26%.
Take `Fc1ccccc1Oc1nccnc1C1CCCN(C2CCOCC2)C1` (stereo not drawn): the cytotoxicity at 70.5 h is -9%.
On to `Cc1cc(O)cc(C2CCCN2C(=O)c2ccn(C)n2)n1` (stereo not drawn), for which the cytotoxicity at 70.5 h is 10.2%.
`Cc1cc(=O)[nH]c(=O)n1Cc1ncc(-c2ccccc2C(=O)O)s1`: the cytotoxicity at 70.5 h is -0.441%.
As for `COCCN1CCC(c2nc3cc(C)ccc3[nH]2)CC1`, the cytotoxicity at 70.5 h was -8.34%.
For `Cc1cc(C)nc(C2CCN(C3CCOCC3)C2)n1` (stereo not drawn), the cytotoxicity at 70.5 h was -11.5%.
In the case of `O=C(O)c1ccccc1-c1ccc(Cn2c(=O)cc[nH]c2=O)cc1` it was -0.721%; in that of `Oc1nc(C2CCN(Cc3ccccn3)CC2)cc2ccccc12`, 32.3%; in that of `COc1cccc(CN2CCCC2c2cncc(Nc3nncs3)n2)c1` (stereo not drawn), 12.9%.
The result for `c1ccc(CCN2CCCC2c2cncc(Nc3nncs3)n2)cc1` (stereo not drawn) reads 10.6%; that for `O=C(c1cccc(O)n1)N1CCC(O)(CN2CCC(F)(F)CC2)C1` (stereo not drawn), -8.18%; that for `CN(C)CC(=O)N1CCOCC(Cc2ccccn2)C1` (stereo not drawn), -13.2%.
The result for `O[C@H]1CN(Cc2ccnc(N3CCCC3)n2)CC[C@@]12CCCO2` reads -9.21%; that for `CCC(=O)N1CCC(c2nc(C)c3c(n2)N(C)CCC3)CC1`, -2.67%; that for `CC(=O)N1CCC(c2nccnc2Nc2cnccn2)CC1`, -10.2%.
For the compound `Cc1cc(N2CCOC(c3ccc(C(N)=O)cn3)C2)ncn1` (stereo not drawn), the cytotoxicity at 70.5 h amounted to 19.9%.
The result for `Cn1ccc(NC(=O)CN2CCC(Oc3cnccn3)CC2)n1` reads 1.93%; that for `O=C(NC[C@H]1CC[C@H](c2ccnc3ncnn32)CC1)C1CC1`, 22.4%.
For the compound `CN1N=C(C(=O)NCCc2csc(-c3ccccc3)n2)CCC1=O`, the cytotoxicity at 70.5 h is -4.18%.
As to `CC(Cc1ccccc1F)C(=O)Nc1cccc(OCC(N)=O)c1` (stereo not drawn), the cytotoxicity at 70.5 h is -2.21%.
Consider `Cc1ccc(C(=O)NS(=O)(=O)Cc2ccc(F)cc2)cc1S(C)(=O)=O`, for which the cytotoxicity at 70.5 h was -3.12%.
With `NC(=O)N1CCC(NCc2cc(C(F)(F)F)ccc2Cl)CC1`, the cytotoxicity at 70.5 h is -5.57%.
In the case of `O=C(CCc1nnc(-c2ccccc2)o1)N1CCCC1c1ccccn1` (stereo not drawn) it was 1.97%; in that of `Cc1ccc(O)c(CNc2cccc(CN3CCSCC3)c2)n1`, 1.03%.
For `CN(Cc1cnn(C)c1)CC(O)c1ccc2c(c1)OCCCO2` (stereo not drawn), the cytotoxicity at 70.5 h came to 17.4%.
Regarding `CC(CNC(=O)c1cc(-n2cccn2)ccn1)Cn1ccnc1` (stereo not drawn), the cytotoxicity at 70.5 h was -0.0471%.
As to `Cc1c(C(=O)N(C)CC(F)(F)F)nnn1-c1ccccc1Cl`, the cytotoxicity at 70.5 h was 6.88%.
With `CC(CNC(=O)c1cccc(-n2cccn2)c1)Cn1ccnc1` (stereo not drawn), the cytotoxicity at 70.5 h turned out to be 2.48%.
Consider `CN(C)CCOc1ccccc1N1CCN(C(=O)C(C)(C)C#N)CC1`, for which the cytotoxicity at 70.5 h is -0.199%.
In the case of `CN(C)c1ccc(CNC(=O)Nc2ccc(S(=O)(=O)C(F)F)cc2)cc1`, the cytotoxicity at 70.5 h is -0.147%.
With `COc1ccccc1N1CCN(C(=O)c2ccoc2)CC1`, the cytotoxicity at 70.5 h was -6.02%.
In the case of `Cc1cccc(NCC(=O)NC2(C#N)CCCC2)c1C(=O)N1CCCC1` it was 2.28%; in that of `O=c1oc(-c2cccs2)nn1CC1(O)CCCCC1`, -1.35%; in that of `CS(=O)(=O)c1ccc(NC(=O)NCc2ccc(F)cc2)cn1`, -0.885%.
As to `COc1ccc(C(=O)Nc2nncs2)cn1`, the cytotoxicity at 70.5 h came to 27.2%.
The result for `COc1cc(NCC(=O)NC(C)(C#N)C(C)C)cc(OC)c1OC` (stereo not drawn) reads -0.783%.
The result for `COc1ncccc1NC(=O)c1[nH]nc(C(C)C)c1Br` reads -8.6%; that for `Cn1ccnc1CN1CCCN(C(=O)C2(C#N)CCCCC2)CC1`, 1.4%; that for `COCCNc1ccc(CC2CCCNC2)cn1` (stereo not drawn), -7.04%.
With `CCn1nc(C)c(-c2cncn2Cc2ccccc2CN(C)C)c1C`, the cytotoxicity at 70.5 h was -3.79%.
Consider `Cc1ccnn1CCC(=O)N1CCCC1c1cc2cccnc2[nH]1` (stereo not drawn), for which the cytotoxicity at 70.5 h worked out at 1.14%.
Take `OC1(c2ccc(F)cc2)CCN(Cc2ccccc2N2CCCC2)CC1`: the cytotoxicity at 70.5 h amounted to 52.6%.
Take `COc1ccc(CN2CCc3sccc3C2C)cc1CN1CCOCC1` (stereo not drawn): the cytotoxicity at 70.5 h is -0.0983%.
In the case of `CC(C)c1[nH]c2ncccc2c1CN1CCOCC1` it was 4.28%; in that of `CNc1nc(C2CCCN2)nc2c1CCN(S(=O)(=O)C1CCCCC1)C2` (stereo not drawn), 12.5%; in that of `COc1cccc(Nc2nc(N3CCCC3)nc3c2CNCC3)c1`, 43.7%.
For the compound `CCc1nccn1-c1cccc(C2CCCN2)n1` (stereo not drawn), the cytotoxicity at 70.5 h is -1.73%.
The result for `Cn1nc(C2CNCCO2)cc1CCOc1ccc(Cl)cc1` (stereo not drawn) reads 7.97%; that for `COCCCN(Cc1ccccn1)Cc1ccnn1C1CCCCO1` (stereo not drawn), 13.4%.
